Measured values as given in paper PMC6267684, “Pharmacokinetic evaluation of the PNC disassembler metarrestin in wild-type and Pdx1-Cre;LSL-Kras^G12D/+;Tp53^R172H/+ (KPC) mice, a genetically engineered model of pancreatic cancer” (Cancer Chemotherapy and Pharmacology, 2018).
Values joined by “and” are separate entries in the source; they are usually repeats but may differ in a detail not shown here. Identical values can stand only once. Like-named read-outs stand apart in the source and are kept apart here.

Assay: Pharmacokinetics in tumor-bearing KPC mice after 25 mg/kg single or multiple dose oral gavage
Format: in vivo
Conditions: for AUC(0-t): po; for Kp: read-out: AUC0–24h ratio (tissue/plasma)
Text: Animals with three or more tumors per organ, pancreatic cysts or cystic tumors, signs of intestinal, pancreatic or gall bladder duct occlusions, or otherwise moribund/showing signs of dilapidation were excluded. Mice were randomized into treatment groups using their tumor volume and location inside pancreas, animal age, gender, and weight by an unbiased covariate randomization.
For pharmacokinetic studies, metarrestin solutions prepared in 30% PEG-400 and 70% (20% w:v HP-β-CD in water) solution were administered to C57BL/6 mice at 3 mg/kg IV via tail vein injection, or 3 and 10 mg/kg orally via gavage. KPC mice were additionally treated with 25 mg/kg PO via gavage. The dosing volume was 3 mL/kg for IV route and 10 mL/kg for PO route. Dosing solutions were prepared on the day of administration. Blood samples were collected at 10, 20 min, 1, 2, 4, 7 and 24 h after 3 mg/kg IV administration. After oral administration of 3 and 10 mg/kg in C57BL6 mice, blood and liver samples were collected at 10 min, 0.5, 1, 2, 3, 5, 7, 9 and 24 h post dosing (n = 3 per time point). In KPC mice, blood, pancreatic tumor, spleen and liver samples were collected at 1, 2, 3, 6, 9, 12 and 24 h after 25 mg/kg PO administration.
For the assessment of multiple dose (MD) pharmacokinetics, KPC mice were treated with daily PO administration of 25 mg/kg metarrestin for 14 days. Plasma (100–300 µL), pancreatic tumors, spleen and liver samples were collected at 0, 3, 6, 9, 12, 15, 24 and 48 h after last dose from three mice at each time point. Daily dosing was carried for 14 days, with the last dose administered at 9:00 a.m. on Day 14. To assess the steady-state concentration of metarrestin in KPC mice, animals were treated with drug-formulated chow for 14 days. To control for daily cycle changes in feeding behavior, 9:00 a.m. on day 0 was designated as the study start time, and 9:00 a.m. on Day 14 was designated as the 0 h time point for sample collection. Blood, pancreatic tumor, spleen and liver tissue were collected at 0, 3, 6, 9, 12, 15, and 24 h from three mice at each time point while the animals were continuously fed with metarrestin-formulated chow on Day 14. Additional controls included mice with a matched drug-free diet, with blood and tissue samples collected at the initial (t = 0) and two intermediate (t = 9 h, t = 24 h) time points.
Blood samples were collected in K2EDTA tubes and plasma was harvested after centrifugation at 3000 rpm for 10 min. Tissue samples were weighed and flash-frozen for PK and PD mRNA expression analyses, embedded into OCT blocks for PNC determination and processed into FFPE blocks for histopathology assessment. All PK samples were stored at − 80 °C until analysis.
An ultra-performance liquid chromatography–tandem mass spectrometry (UPLC–MS/MS) method was developed to determine metarrestin concentrations in plasma and tissue samples. Mass spectrometric analysis was performed on a Waters Xevo TQ-S triple quadrupole instrument using electrospray ionization in positive mode. The separation was performed on an Acquity BEH C18 column (50 × 2.1 mm, 1.7 µ) using a Waters Acquity UPLC system with 0.6 mL/min flow rate and gradient elution. Mobile phase A was 0.1% formic acid in water, and B was 0.1% formic acid in acetonitrile (ACN). The column temperature was maintained at 60 °C. The calibration standards and quality control (QC) samples were prepared in the control blank mouse plasma and tissue homogenate. Tissues were homogenized with 3 or 6 volumes (v/w) of deionized water on the day of analysis. Proteins were precipitated from 10 µL plasma or 5 µL tissue homogenate with 200 µL ACN containing 100 ng/mL Tolbutamide as internal standard in 96-well plates. The mixture was vortexed for 2 min and centrifuged at 4000 rpm for 30 min at 4 °C. An aliquot of 150 µL supernatant was transferred to a 350-µL 96-well plate. 0.2 µL supernatant was injected for the UPLC–MS/MS analysis. Data were analyzed using MassLynx V4.1. […]

[1] = KPC, mouse, pancreatic tumor, tumor, day 14, multiple PO doses 25 mg/kg/day
[2] = KPC, mouse, pancreatic tumor, tumor, single PO dose 25 mg/kg
[3] = KPC, mouse, liver, day 14, multiple PO doses 25 mg/kg/day
[4] = KPC, mouse, liver, single PO dose 25 mg/kg
[5] = KPC, mouse, plasma, day 14, multiple PO doses 25 mg/kg/day
[6] = KPC, mouse, plasma, single PO dose 25 mg/kg
[7] = KPC, mouse, spleen, day 14, multiple PO doses 25 mg/kg/day
[8] = KPC, mouse, spleen, single PO dose 25 mg/kg

## N=c1c2c(-c3ccccc3)c(-c3ccccc3)n(Cc3ccccc3)c2ncn1[C@H]1CC[C@H](O)CC1 [metarrestin, Trans-4-(7-benzyl-4-imino-5,6-diphenyl-4,7-dihydro-3H-pyrrolo[2,3-d]pyrimidin-3-yl) cyclohexanol]
25 mg/kg PO gavage MD
  intratumor AUC0–24h: 1,150,000 h ng/mL
KPC, mouse, liver, 25 mg/kg, liver, single PO dose 25 mg/kg, read-out: AUC0–24h
  AUC(0-t): 536 µg·h/mL
KPC, mouse, liver, 25 mg/kg/day, liver, day 14, multiple PO doses 25 mg/kg/day, read-out: AUC0–24h
  AUC(0-t): 987 µg·h/mL
KPC, mouse, liver, 25 mg/kg/day, liver, day 14, multiple PO doses 25 mg/kg/day, read-out: AUC0–48h
  AUC(0-t): 1290 µg·h/mL
KPC, mouse, pancreatic tumor / plasma, tumor/plasma, day 14, multiple PO doses 25 mg/kg/day
  Kp: 37
KPC, mouse, pancreatic tumor / plasma, tumor/plasma, single PO dose 25 mg/kg
  Kp: 19
KPC, mouse, pancreatic tumor, 25 mg/kg, tumor, single PO dose 25 mg/kg, read-out: AUC0–24h
  AUC(0-t): 232 µg·h/mL
KPC, mouse, pancreatic tumor, 25 mg/kg/day, tumor, day 14, multiple PO doses 25 mg/kg/day, read-out: AUC0–24h
  AUC(0-t): 1150 µg·h/mL
KPC, mouse, pancreatic tumor, 25 mg/kg/day, tumor, day 14, multiple PO doses 25 mg/kg/day, read-out: AUC0–48h
  AUC(0-t): 1810 µg·h/mL
KPC, mouse, pancreatic tumor, 24 h after single dose 25 mg/kg PO, read-out: intratumor concentration (mean)
  concentration at 24 h: 6200 ng/g and 13 µM
[1]
  AUC(0-inf): 2090 µg·h/mL
  Cmax: 65000 ng/mL
  Tmax: 6 h
  half-life: 18 h
[2]
  Cmax: 14000 ng/mL
  Tmax: 6 h
KPC, mouse, plasma, 25 mg/kg, plasma, single PO dose 25 mg/kg, read-out: AUC0–24h
  AUC(0-t): 12.1 µg·h/mL
KPC, mouse, plasma, 25 mg/kg/day, plasma, day 14, multiple PO doses 25 mg/kg/day, read-out: AUC0–24h
  AUC(0-t): 31.5 µg·h/mL
KPC, mouse, plasma, 25 mg/kg/day, plasma, day 14, multiple PO doses 25 mg/kg/day, read-out: AUC0–48h
  AUC(0-t): 38.4 µg·h/mL
KPC, mouse, spleen, 25 mg/kg, spleen, single PO dose 25 mg/kg, read-out: AUC0–24h
  AUC(0-t): 396 µg·h/mL
KPC, mouse, spleen, 25 mg/kg/day, spleen, day 14, multiple PO doses 25 mg/kg/day, read-out: AUC0–24h
  AUC(0-t): 959 µg·h/mL
KPC, mouse, spleen, 25 mg/kg/day, spleen, day 14, multiple PO doses 25 mg/kg/day, read-out: AUC0–48h
  AUC(0-t): 1220 µg·h/mL
KPC, mouse, liver/plasma, day 14, multiple PO doses 25 mg/kg/day
  Kp: 31
KPC, mouse, liver/plasma, single PO dose 25 mg/kg
  Kp: 44
[3]
  AUC(0-inf): 1350 µg·h/mL
  Cmax: 59500 ng/mL
  Tmax: 6 h
  half-life: 9.6 h
[4]
  AUC(0-inf): 653 µg·h/mL
  Cmax: 34200 ng/mL
  Tmax: 6 h
  half-life: 9 h
[5]
  AUC(0-inf): 39.3 µg·h/mL
  Cmax: 2000 ng/mL
  Tmax: 3 h
  half-life: 8.2 h
[6]
  AUC(0-inf): 14.4 µg·h/mL
  Cmax: 810 ng/mL
  Tmax: 6 h
  half-life: 8.5 h
KPC, mouse, spleen/plasma, day 14, multiple PO doses 25 mg/kg/day
  Kp: 30
KPC, mouse, spleen/plasma, single PO dose 25 mg/kg
  Kp: 33
[7]
  AUC(0-inf): 1250 µg·h/mL
  Cmax: 62400 ng/mL
  Tmax: 6 h
  half-life: 8.2 h
[8]
  AUC(0-inf): 495 µg·h/mL
  Cmax: 25000 ng/mL
  Tmax: 6 h
  half-life: 9.7 h
liver, MD 25 mg/kg/day PO
  AUC0–24h: 987,000 ng h/g
liver, SD 25 mg/kg PO
  AUC0–24h: 536,000 ng h/g
tumor, MD 25 mg/kg/day PO
  AUC0–24h: 1,150,000 ng h/g
tumor, SD 25 mg/kg PO
  AUC0–24h: 232,000 ng h/g
